Measured values as given in US20240317735A1, “HYDROISOQUINOLINE OR HYDRONAPHTHYRIDINE COMPOUNDS FOR THE TREATMENT OF AUTOIMMUNE DISEASE” (Hoffmann-La Roche Inc., priority 2020, published 2024).

Molecular target: T1, TLR9 (Homo sapiens, UniProt Q9NR96)
T1 sequence (Q9NR96 26-1032): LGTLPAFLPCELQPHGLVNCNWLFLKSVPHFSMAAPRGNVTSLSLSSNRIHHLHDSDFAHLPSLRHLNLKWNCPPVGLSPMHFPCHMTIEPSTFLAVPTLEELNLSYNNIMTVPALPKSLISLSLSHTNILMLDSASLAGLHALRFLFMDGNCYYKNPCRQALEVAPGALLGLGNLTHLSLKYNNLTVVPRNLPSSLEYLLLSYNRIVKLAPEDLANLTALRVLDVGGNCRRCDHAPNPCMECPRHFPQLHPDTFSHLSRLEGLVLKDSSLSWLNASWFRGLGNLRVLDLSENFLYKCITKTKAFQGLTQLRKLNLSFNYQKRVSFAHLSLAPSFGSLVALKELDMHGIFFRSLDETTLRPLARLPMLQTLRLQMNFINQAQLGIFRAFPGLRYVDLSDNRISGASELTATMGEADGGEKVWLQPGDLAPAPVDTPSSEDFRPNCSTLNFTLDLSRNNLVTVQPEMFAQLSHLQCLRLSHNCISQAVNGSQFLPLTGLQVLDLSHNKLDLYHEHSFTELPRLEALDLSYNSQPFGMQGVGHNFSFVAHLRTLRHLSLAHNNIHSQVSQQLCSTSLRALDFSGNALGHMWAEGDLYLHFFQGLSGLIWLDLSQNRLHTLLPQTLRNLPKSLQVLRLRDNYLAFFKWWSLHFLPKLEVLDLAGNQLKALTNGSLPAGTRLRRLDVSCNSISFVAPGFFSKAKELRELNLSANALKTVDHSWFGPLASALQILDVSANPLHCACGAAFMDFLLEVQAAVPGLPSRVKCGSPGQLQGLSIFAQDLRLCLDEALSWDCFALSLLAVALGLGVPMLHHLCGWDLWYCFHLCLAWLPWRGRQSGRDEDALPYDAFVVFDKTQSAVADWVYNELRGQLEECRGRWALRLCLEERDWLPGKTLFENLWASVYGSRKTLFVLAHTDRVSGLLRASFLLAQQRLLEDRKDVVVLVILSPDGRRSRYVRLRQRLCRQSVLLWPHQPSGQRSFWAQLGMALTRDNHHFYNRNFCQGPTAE
Assay: HEK293-Blue-hTLR-9 cells assay (SEAP reporter, ODN2006 stimulation)
Type: cell-based
Set-up: host or cells: HEK293 (HEK-Blue hTLR9)
Conditions: HEK293-Blue-hTLR9 cells, ODN2006, 20 hrs; read-out: HEK/hTLR9 IC50
Protocol: The following tests were carried out in order to determine the activity of the compounds of formula (I) and (Ia) in HEK293-Blue-hTLR-7/8/9 cells assay.
A stable HEK293-Blue-hTLR-9 cell line was purchased from InvivoGen (Cat. #: hkb-htlr9, San Diego, California, USA). These cells were originally designed for studying the stimulation of human TLR9 by monitoring the activation of NF-κB. A SEAP (secreted embryonic alkaline phosphatase) reporter gene was placed under the control of the IFN-β minimal promoter fused to five NF-κB and AP-1-binding sites. The SEAP was induced by activating NF-κB and AP-1 via stimulating HEK-Blue hTLR9 cells with TLR9 ligands. Therefore the reporter expression was declined by TLR9 antagonist under the stimulation of a ligand, such as ODN2006 (Cat. #: tlrl-2006-1, Invivogen, San Diego, California, USA), for incubation of 20 hrs. The cell culture supernatant SEAP reporter activity was determined using QUANTI-Blue™ kit (Cat. #: rep-qb1, Invivogen, San Diego, California, USA) at a wavelength of 640 nm, a detection medium that turns purple or blue in the presence of alkaline phosphatase.
HEK293-Blue-hTLR9 cells were incubated at a density of 250,000-450,000 cells/mL in a volume of 170 μL in a 96-well plate in Dulbecco's Modified Eagle's medium (DMEM) containing 4.5 g/L glucose, 50 U/mL penicillin, […], […], 2 mM L-glutamine, 10% (v/v) heat-inactivated fetal bovine serum with addition of 20 μL test compound in a serial dilution in the presence of final DMSO at 1% and 10 μL of 20 uM ODN2006 in above DMEM, perform incubation under 37° C. in a CO2 incubator for 20 hrs. Then 20 μL of the supernatant from each well was incubated with 180 μL Quanti-blue substrate solution at 37° C. for 2 h and the absorbance was read at 620˜655 nm using a spectrophotometer.
The signaling pathway that TLR9 activation leads to downstream NF-κB activation has been widely accepted, and therefore similar reporter assay was modified for evaluating TLR9 antagonist.

Structure (SMILES)	IC50 [nM]
Cc1cc(N2Cc3ccc(N4CCC5(CCNCC5)CC4)cc3C(C)C2)c2cnn(C)c2n1 (stereo not drawn) [Example 5, 3-[2-(1,6-dimethylpyrazolo[3,4-b]pyridin-4-yl)-4-methyl-3,4-dihydro-1H-isoquinolin-6-yl]-3,9-diazaspiro[5.5]undecane]	123
C[C@H]1CN(c2ccnc3c2cnn3C)Cc2ccc(OC[C@@H]3CNCCN3C)cc21 [Example 44, (4R)-4-methyl-2-(1-methylpyrazolo[3,4-b]pyridin-4-yl)-6-[[(2S)-1-methylpiperazin-2-yl]methoxy]-3,4-dihydro-1H-isoquinoline]	234
C[C@H]1CN(c2ccnc3c2cnn3C)Cc2ccc(N3C[C@H]4CNCCN4C3=O)cc21 [Example 24, (8aR)-2-[(4R)-4-methyl-2-(1-methylpyrazolo[3,4-b]pyridin-4-yl)-3,4-dihydro-1H-isoquinolin-6-yl]-1,5,6,7,8,8a-hexahydroimidazo[1,5-a]pyrazin-3-one]	311
C[C@H]1CN(c2ccnc3c2cnn3C)Cc2ccc(N3CCC(N4CCNCC4)CC3)cc21 [Example 10, (4R)-4-methyl-2-(1-methylpyrazolo[3,4-b]pyridin-4-yl)-6-(4-piperazin-1-yl-1-piperidyl)-3,4-dihydro-1H-isoquinoline]	58
C[C@H]1CN(c2ccnc3c2cnn3C)Cc2ccc(N3C[C@H]4CCNC[C@H]4C3=O)cc21 (single isomer, unassigned) [Example 56]	254
C[C@H]1CN(c2ccnc3c2cnn3C)Cc2ccc(N3CCN(C(=O)C4CNCCO4)CC3)cc21 (stereo partly drawn) [Example 12, morpholin-2-yl-[4-[(4R)-4-methyl-2-(1-methylpyrazolo[3,4-b]pyridin-4-yl)-3,4-dihydro-1H-isoquinolin-6-yl]piperazin-1-yl]methanone]	298
CO[C@H]1CN(c2ccc3c(n2)[C@@H](C)CN(c2cc(C)nc4c2cnn4C)C3)CC[C@@H]1N [Example 65, (3S,4S)-3-methoxy-1-[(8S)-6-(1,6-dimethylpyrazolo[3,4-b]pyridin-4-yl)-8-methyl-7,8-dihydro-5H-1,6-naphthyridin-2-yl]piperidin-4-amine]	106
CC1CN(c2ccnc3c2cnn3C)Cc2ccc(N3CCC4(CCNCC4)CC3)cc21 (stereo not drawn) [Example 4, 3-[4-methyl-2-(1-methylpyrazolo[3,4-b]pyridin-4-yl)-3,4-dihydro-1H-isoquinolin-6-yl]-3,9-diazaspiro[5.5]undecane]	275
Cc1cc(N2Cc3ccc(OC[C@H]4CNCCN4)cc3[C@@H](C)C2)c2cnn(C)c2n1 [Example 30, (4R)-2-(1,6-dimethylpyrazolo[3,4-b]pyridin-4-yl)-4-methyl-6-[[(2R)-piperazin-2-yl]methoxy]-3,4-dihydro-1H-isoquinoline]	88
CO[C@@H]1CN(C2CCN(c3ccc4c(c3)[C@@H](C)CN(c3ccnc5c3cnn5C)C4)CC2)C[C@H]1N [Example 11, (3R,4R)-4-methoxy-1-[1-[(4R)-4-methyl-2-(1-methylpyrazolo[3,4-b]pyridin-4-yl)-3,4-dihydro-1H-isoquinolin-6-yl]-4-piperidyl]pyrrolidin-3-amine]	63
Cn1ncc2c(N3Cc4ccc(N5CCC6(CCNCC6)CC5)cc4C(C)(C)C3)ccnc21 [Example 6, 3-[4,4-dimethyl-2-(1-methylpyrazolo[3,4-b]pyridin-4-yl)-1,3-dihydroisoquinolin-6-yl]-3,9-diazaspiro[5.5]undecane]	112
C[C@H]1CN(c2ccnc3c2cnn3C)Cc2ccc(N3CCN(S(=O)(=O)C4CCNC4)CC3)cc21 (stereo partly drawn) [Example 33, (4R)-4-methyl-2-(1-methylpyrazolo[3,4-b]pyridin-4-yl)-6-(4-pyrrolidin-3-ylsulfonylpiperazin-1-yl)-3,4-dihydro-1H-isoquinoline]	326
Cc1cc(N2Cc3ccc(N4CCC(O)(CN(C)C)CC4)nc3[C@@H](C)C2)c2cnn(C)c2n1 [Example 61, 4-[(dimethylamino)methyl]-1-[(8S)-6-(1,6-dimethylpyrazolo[3,4-b]pyridin-4-yl)-8-methyl-7,8-dihydro-5H-1,6-naphthyridin-2-yl]piperidin-4-ol]	129
C[C@H]1CN(c2ccnc3c2cnn3C)Cc2ccc(N3C[C@]4(CCNC4)CC3=O)cc21 (single isomer, unassigned) [Example 54]	334
COC[C@H]1CN(c2cc3c(cn2)CN(c2cc(C)nc4c2cnn4C)C[C@@H]3C)CCN1 [Example 81, (4R)-2-(1,6-dimethylpyrazolo[3,4-b]pyridin-4-yl)-4-methyl-6-[(3R)-3-(methoxymethyl)piperazin-1-yl]-3,4-dihydro-1H-2,7-naphthyridine]	218
Cc1cc(N2Cc3ccc(N4CCC(N(C)C)CC4)nc3[C@@H](C)C2)c2cnn(C)c2n1 [Example 60, N,N-dimethyl-1-[(8S)-6-(1,6-dimethylpyrazolo[3,4-b]pyridin-4-yl)-8-methyl-7,8-dihydro-5H-1,6-naphthyridin-2-yl]piperidin-4-amine]	104
C[C@H]1CN(c2ccnc3c2cnn3C)Cc2ccc(N3CCNC(CO)C3)cc21 (stereo partly drawn) [Example 49, [4-[(4R)-4-methyl-2-(1-methylpyrazolo[3,4-b]pyridin-4-yl)-3,4-dihydro-1H-isoquinolin-6-yl]piperazin-2-yl]methanol]	199
C[C@H]1CN(c2ccnc3c2cnn3C)Cc2ccc(N3CC4CNC[C@H]4C3=O)cc21 (relative stereo) [Example 17, cis-5-[(4R)-4-methyl-2-(1-methylpyrazolo[3,4-b]pyridin-4-yl)-3,4-dihydro-1H-isoquinolin-6-yl]-1,2,3,3a,6,6a-hexahydropyrrolo[3,4-c]pyrrol-4-one]	217
C[C@H]1CN(c2ccnc3c2cnn3C)Cc2ccc(N3C[C@@H]4CNCCN4C3=O)cc21 [Example 25, (8aS)-2-[(4R)-4-methyl-2-(1-methylpyrazolo[3,4-b]pyridin-4-yl)-3,4-dihydro-1H-isoquinolin-6-yl]-1,5,6,7,8,8a-hexahydroimidazo[1,5-a]pyrazin-3-one]	291
Cc1cc(N2Cc3cnc(N4CCNC5(CC5)C4)cc3[C@@H](C)C2)c2cnn(C)c2n1 [Example 75, (4R)-6-(4,7-diazaspiro[2.5]octan-7-yl)-2-(1,6-dimethylpyrazolo[3,4-b]pyridin-4-yl)-4-methyl-3,4-dihydro-1H-2,7-naphthyridine]	115
C[C@H]1CN(c2ccnc3c2cnn3C)Cc2ccc(N3C[C@@H]4CCNC[C@@H]4C3=O)cc21 (single isomer, unassigned) [Example 57]	226
